Source: US7628979B1, “Use of calco oil blue V in bait formulations for marking and controlling subterranean termites” (The United States of America as represented by the …, priority 2005, dated 2009)

Columns and labels:
[1] = test system: Formosan subterranean termite workers; assay: Laboratory foraging-box bait test, groups of 1000 termite workers (colorant:CSI dose determination); format: in vivo, Coptotermes formosanus; conditions: for Groups of 1000 termite workers alive: of 12 boxes
Description: Under a laminar flow hood, 66 g colored cellulose powder at concentration of 50, 100, 225, 250, 500, or 750 ppm (0.010, 0.020, 0.045, 0.050, 0.100, or 0.150 g, respectively) from example 1 was mixed with 135 ml of sterile nutritional supplement (formulated as in example 1) in a 250 ml sterile glass beaker (prepared as reported by Rojas, M. G. and Morales-Ramos, J. A., “Bait matrix for delivery of chitin synthesis inhibitors to the Formosan subterranean termite [Isoptera: Rhinotermitidae],” J. Econ. Entomol., 94(2): 506-510 (2001)). A dose of 175 ppm of diflubenzuron was added to the formulations containing 50 and 100 ppm of calco oil blue. A lower dose of 50 ppm of diflubenzuron was added to the formulations containing 225 and 500 ppm of calco oil blue. The mixture was manually homogenized using a stainless steel spatula. To encase the bait matrix, tubes made of fibrous casing material (#124B; L.E.M. Products, Inc., Miamitown, Ohio) were cut into 150 mm long portions as reported by Rojas and Morales-Ramos (2001) supra. Fifty grams of bait matrix containing the blue colorant was compacted into one end of the inlet tube, at which point the open end of the inlet tube was closed with a rubber band. The bait casing was placed inside the foraging box adjacent to a 10 g piece of pine wood, taking care that they were partially covered with the sand. Control bait matrix was prepared minus blue colorant, and presented in the same was as the treatment matrix to Formosan subterranean termite workers taken from four different colonies, with 3 boxes per locality totaling twelve boxes of 1000 termites per treatment (Rojas and Morales-Ramos supra). All the experimental boxes were maintained under darkness at 27±1° C. and 90±2% relative humidity. Observations were done every 72 hours until all the termites died. The time to reach 100% mortality was measured and recorded. Mean comparisons among treatments and control were conducted.

[2] = test system: Formosan subterranean termites; assay: In-field marking and control, bait at infested trees, sites 1 and 2; format: in vivo; conditions: for Bait consumption: 250 ppm bait
Text: (§1) Formosan subterranean termite and native subterranean termite infested trees (Water Oaks and Legastrums) in New Orleans, La. were chosen for this study. Three sites were selected located at the Southern Regional Research Center campus. Site 1 was located near the service building next to an old water oak tree, site 2 was located in the compound area near ligastrum trees, and site 3 near ligastrum trees outside the compound area. Sites 1 and 2 were active with Formosan subterranean termites and site 3 with Eastern subterranean termites.
(§2) The colored bait matrix at 250 ppm was encapsulated as described above and placed directly in the base of the trees where termites were foraging, making sure that the encapsulated colored bait matrix was covered with soil or with a piece of wood or brick on top of it to prevent desiccation. The bait was periodically inspected for consumption and termite activity. The field study started in early August and was completed by the end of the following June. During winter (December-February) termite activity decreased considerably, but by April termite activity and foraging resumed and the blue colored matrix was replaced by bait formulation containing 250 ppm of chitin synthesis inhibitors to kill the colonies. Diflubenzuron was used in 2 of the sites and chlorfluazuron was used in the remaining site.

[3] = test system: Eastern subterranean termites; assay: In-field marking and control, bait at infested trees, site 3; format: in vivo; conditions: Site 3 (Ligastrum), 250 ppm bait
Text: as §1, §2

CCCCC(CC)CNc1ccc(NCC(CC)CCCC)c2c1C(=O)c1ccccc1C2=O (centres unmarked) [Calco oil blue V, 9,10-anthracenedione, 1,4-bis[(2-ethylhexyl)amino]]
Groups of 1000 termite workers alive ([1]; 1 Month, Calco oil blue V 50 ppm + Diflubenzuron 175 ppm): 11
Groups of 1000 termite workers alive ([1]; 1 Month, Calco oil blue V 100 ppm + Diflubenzuron 175 ppm): 9
Groups of 1000 termite workers alive ([1]; 1 Month, Calco oil blue V 225 ppm + Diflubenzuron 50 ppm): 7
Groups of 1000 termite workers alive ([1]; 1 Month, Calco oil blue V 500 ppm + Diflubenzuron 50 ppm): 9
Groups of 1000 termite workers alive ([1]; 2 Months, Calco oil blue V 50 ppm + Diflubenzuron 175 ppm): 10
Groups of 1000 termite workers alive ([1]; 2 Months, Calco oil blue V 100 ppm + Diflubenzuron 175 ppm): 4
Groups of 1000 termite workers alive ([1]; 2 Months, Calco oil blue V 225 ppm + Diflubenzuron 50 ppm): 2
Groups of 1000 termite workers alive ([1]; 2 Months, Calco oil blue V 500 ppm + Diflubenzuron 50 ppm): 4
Groups of 1000 termite workers alive ([1]; 3 Months, Calco oil blue V 50 ppm + Diflubenzuron 175 ppm): 5
Groups of 1000 termite workers alive ([1]; 3 Months, Calco oil blue V 100 ppm + Diflubenzuron 175 ppm): 1
Groups of 1000 termite workers alive ([1]; 3 Months, Calco oil blue V 225 ppm + Diflubenzuron 50 ppm): 0
Groups of 1000 termite workers alive ([1]; 3 Months, Calco oil blue V 500 ppm + Diflubenzuron 50 ppm): 3
effect on molting of immature termites ([1]; after a month and a half, 50 ppm or 100 ppm calco blue + 175 ppm diflubenzuron): immature termites molted prematurely
effect on molting of immature termites ([1]; after a month, 225 ppm calco blue + 50 ppm diflubenzuron): immature termites molted prematurely
time to mortality of a 1000-worker colony ([1]; calco blue + diflubenzuron combination, depending on health and age of the colony): about 4 weeks
palatability of the bait ([1]; calco blue concentrations above 750 ppm): unpalatable
Bait consumption ([1]; calco blue concentrations above 1000 ppm): consumption is almost nonexistent
time some termite colonies required to begin feeding on the formulations ([1]; concentration of blue >225 ppm): more than 8 hrs
time until experimental colony was dead ([1]; exposure to formulation containing calco oil blue V and diflubenzuron, control boxes alive after 3 months): about two months and a half
Bait consumption ([2]; Site 1 (Water Oak), day 7): 0 g
Bait consumption ([2]; Site 1 (Water Oak), day 14): 150 g
Bait consumption ([2]; Site 1 (Water Oak), day 21): 350 g
Bait consumption ([2]; Site 1 (Water Oak), day 27): 400 g
Bait consumption ([2]; Site 1 (Water Oak), day 46): 400 g
Bait consumption ([2]; Site 1 (Water Oak), day 56): 100 g
Bait consumption ([2]; Site 1 (Water Oak), day 73): 0 g
Bait consumption ([2]; Site 1 (Water Oak), day 83): 0 g
Bait consumption ([2]; Site 1 (Water Oak), day 102): 0 g
Bait consumption ([2]; Site 1 (Water Oak), day 159): 0 g
Bait consumption ([2]; Site 1 (Water Oak), day 221): 0 g
Bait consumption ([2]; Site 1 (Water Oak), day 251): 0 g
Bait consumption ([2]; Site 1 (Water Oak), day 281): 0 g
Bait consumption ([2]; Site 2 (Ligastrum), day 7): 0 g
Bait consumption ([2]; Site 2 (Ligastrum), day 14): 200 g
Bait consumption ([2]; Site 2 (Ligastrum), day 21): 450 g
Bait consumption ([2]; Site 2 (Ligastrum), day 27): 300 g
Bait consumption ([2]; Site 2 (Ligastrum), day 46): 250 g
Bait consumption ([2]; Site 2 (Ligastrum), day 56): 350 g
Bait consumption ([2]; Site 2 (Ligastrum), day 73): 250 g
Bait consumption ([2]; Site 2 (Ligastrum), day 83): 300 g
Bait consumption ([2]; Site 2 (Ligastrum), day 102): 400 g
Bait consumption ([2]; Site 2 (Ligastrum), day 159): 200 g
Bait consumption ([2]; Site 2 (Ligastrum), day 221): 0 g
Bait consumption ([2]; Site 2 (Ligastrum), day 251): 0 g
Bait consumption ([2]; Site 2 (Ligastrum), day 281): 0 g
time termite workers remained visibly colored after removing the blue colored bait formulation ([2]; field, 250 ppm): 1 week
marking of termites after feeding on colored bait matrix ([2]; field, 250 ppm colored bait matrix without diflubenzuron): visibly colored blue
period to eliminate the colonies ([2]; field, calco oil blue bait followed by bait with 250 ppm chitin synthesis inhibitors): 2 months
effect on termite colonies and termite activity ([2]; field, matrix with calco oil blue V alone, 250 ppm): did not kill the termite colonies nor reduce termite activity
Bait consumption ([3]; day 7): 0 g
Bait consumption ([3]; day 14): 200 g
Bait consumption ([3]; day 21): 150 g
Bait consumption ([3]; day 27): 150 g
Bait consumption ([3]; day 46): 100 g
Bait consumption ([3]; day 56): 0 g
Bait consumption ([3]; day 73): 0 g
Bait consumption ([3]; day 83): 0 g
Bait consumption ([3]; day 102): 0 g
Bait consumption ([3]; day 159): 0 g
Bait consumption ([3]; day 221): 0 g
Bait consumption ([3]; day 251): 0 g
Bait consumption ([3]; day 281): 0 g
